Tests used:
[1] = biological target: T1, ODCase (Rattus norvegicus, UniProt A0ACM8Q7Z8); conditions: rat brain tissue; cited from earlier work
T1 construct: host or cells: rat brain tissue

[2] = biological target: T2, OPRTase (Rattus norvegicus, UniProt A0ACM8Q7Z8); conditions: rat brain tissue; cited from earlier work
T2 construct: host or cells: rat brain tissue
T2 sequence (A0ACM8Q7Z8 1-481): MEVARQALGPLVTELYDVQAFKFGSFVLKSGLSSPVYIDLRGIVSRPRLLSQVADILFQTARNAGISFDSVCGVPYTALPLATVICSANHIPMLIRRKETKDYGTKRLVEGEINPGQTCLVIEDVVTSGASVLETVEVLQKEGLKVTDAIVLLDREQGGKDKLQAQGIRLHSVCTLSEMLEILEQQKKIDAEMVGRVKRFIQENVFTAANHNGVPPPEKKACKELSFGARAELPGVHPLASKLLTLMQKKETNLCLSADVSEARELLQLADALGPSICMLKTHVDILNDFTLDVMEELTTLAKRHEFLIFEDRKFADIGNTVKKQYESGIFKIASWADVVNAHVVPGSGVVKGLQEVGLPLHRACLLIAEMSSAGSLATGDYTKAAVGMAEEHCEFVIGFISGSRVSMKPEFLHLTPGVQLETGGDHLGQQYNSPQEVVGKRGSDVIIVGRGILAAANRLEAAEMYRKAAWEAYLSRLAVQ

[3] = biological target: uridine phosphorylase; conditions: salvage pathway; cited from earlier work
[4] = biological target: T3, dihyroorotate dehydrogenase (DHOD) (Rattus norvegicus, UniProt Q63707); conditions: rat brain tissue; cited from earlier work
T3 construct: host or cells: rat brain tissue

[5] = tested on: whole plant; assay: Whole plant injury by barbiturate; conditions: in vivo
[6] = tested on: OPRTase/ODCase; assay: In vitro enzymatic conversion of [14C]-orotate to UMP, cell free extract from corn root tissue; type: biochemical
Protocol: Etiolated corn roots and shoots or soybean suspension cells were used as tissue. Corn seedlings were germinated on vermiculite for 4 days in the dark at 26_C. and roots and shoots harvested separately. The soybean cells were grown in media consisting of Muashige and Skoog salts (Physiol. Plant (1962) 15:473-497) purchased from Gibco/BRL, vitamins (glycine 2 mg/L, thiamine 0.1 mg/L, nicotinic acid 0.5 mg/L, pyridoxine-HCl 0.5 mg/L), myo-inositol (100 mg/L), 2,4-D ([…]), and 30 g/L sucrose. Cell cultures are grown at 25° C. with gentle shaking. Cultures were transfered every 7 days to new growth media.
Approximately 5-10 g plant tissue were ground in liquid nitrogen and resuspended in 1:2 (w/v) homogenization buffer (30 mM KPO4^−; 25 mM […], 5 mM MgCl2, 5 mM ascorbic acid, pH 7.2). The homogenate was centrifuged at 10,000 g for 20 min, and the supernatant desalted using BioRad columns. The desalted supernatant was used for OPRTase/ODCase enzyme assays. For DHOD enzyme extraction, the supernatant was further centrifuged at 100,000 g for 45 min to obtain a microsomal pellet. The microsomal pellet was resuspended in 3-4 ml resuspension buffer (70 mM Tris-base, pH 7.4) containing 1% Triton X-100.
All enzyme assays were performed according to Rawls, J. M. (1978) Anal. Biochem. 86 (1): 107-117 and Cleaveland et al. (1995). Biochem. Pharm. 49(7):947-954. Enzyme assays were performed in a total volume of 200 ul with 1 uM [^14C]carbamoyl aspartate, [^14C]dihydroorotate or [^14C]orotate as substrates, and 1-5 mM probe compound or barbiturate as inhibitors. The [^14C]carbamoyl aspartate and [^14C]dihydroorotate assay was performed using a potassium phosphate buffer, pH 7.4 with 12 mM NAD^+, and 10 mM MgCl2. […] Over time, 25 ul aliquots were taken from the reaction tube and boiled for 5 min to stop the reaction. Samples were spotted onto cellulose TLC plates and run using 0.1 M potassium phosphate buffer, 100% ammonium sulfate, and 1-propanol (10:6:1). Plates were developed using a TLC plate radioisotope detector. Orotate and UMP standards were run next to unknowns to identify the conversion of [^14C]orotate to [^14C]UMP in the enzyme assay.

T3 sequence (Q63707 whole entry): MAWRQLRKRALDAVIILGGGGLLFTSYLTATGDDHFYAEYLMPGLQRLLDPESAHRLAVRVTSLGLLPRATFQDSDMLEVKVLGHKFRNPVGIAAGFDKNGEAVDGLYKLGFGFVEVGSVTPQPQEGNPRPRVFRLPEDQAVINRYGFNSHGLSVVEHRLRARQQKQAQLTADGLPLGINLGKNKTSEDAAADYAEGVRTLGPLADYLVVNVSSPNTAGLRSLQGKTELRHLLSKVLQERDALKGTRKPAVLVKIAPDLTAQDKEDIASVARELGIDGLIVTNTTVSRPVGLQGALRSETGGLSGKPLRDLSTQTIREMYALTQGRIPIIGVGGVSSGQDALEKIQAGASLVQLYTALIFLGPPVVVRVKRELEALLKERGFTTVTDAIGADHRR

O=C1CC(=O)NC(=O)N1 [barbiturate, reference compound]
Ki [1]: 75 µM
Ki [2]: 18 µM
Ki [3]: 786 µM
Ki [4]: 412 µM
whole plant injury [5]: does not cause whole plant injury
inhibition of the conversion of orotic acid to UMP ([6]; 1 mM): 80%
inhibition of the conversion of orotic acid to UMP ([6]; 2 mM): 100%
radiolabeled orotate converted to UMP ([6]; 15 minutes after treatment, 100 μM PRPP, untreated control 55%): 20%
inhibition of the conversion of [14C]-orotate to UMP ([6]; FIG. 10, concentration not stated): 80%
effect on OPRTase/ODCase activity (conversion of [14C]-orotate to UMP) ([6]; cell free extract): inhibits
IC50 ([6]; corn root cell free extract, read-out: concentration at which there is 50% inhibition of UMP synthesis (IC50)): < 270 µM

— US20020058244A1, “Method for detecting uracil biosynthesis inhibitors and their use as herbicides” (priority 2000, published 2002)
